Test results from PubChem BioAssay AID2060883 (Molecular Pharmacology Branch, DTP, NCI, 2025).
pIC50: −log10 of the molar value.

Test system: 843782-103-R-J1-PDC complex spheroid viability
Assay: Anticancer human tumor 843782-103-R-J1-PDC patient-derived lung adenocarcinoma cell line growth inhibition [RAS]
Conditions: for pIC50: curve of first compound; for viability, T/C: stronger effect = lower value
Method in brief: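 Tumour cells grown as complex spheroids with HUVEC endothelial cells and mesenchymal stem cells, treated with RAS pathway inhibitor combinations. Each agent spans half-log steps from near clinical Cmax, or 10 microM where Cmax is unknown.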

[1] = second compound 0.0316 µM, first compound 0.0316 µM
[2] = second compound 0.0316 µM, first compound 0.1 µM
[3] = second compound 0.0316 µM, first compound 0.316 µM
[4] = second compound 0.0316 µM, first compound 1 µM
[5] = second compound 0.1 µM, first compound 0.0316 µM
[6] = second compound 0.1 µM, first compound 0.1 µM
[7] = second compound 0.1 µM, first compound 0.316 µM
[8] = second compound 0.1 µM, first compound 1 µM
[9] = second compound 0.316 µM, first compound 0.0316 µM
[10] = second compound 0.316 µM, first compound 0.1 µM
[11] = second compound 0.316 µM, first compound 0.316 µM
[12] = second compound 0.316 µM, first compound 1 µM
[13] = second compound 1 µM, first compound 0.0316 µM
[14] = second compound 1 µM, first compound 0.1 µM
[15] = second compound 1 µM, first compound 0.316 µM
[16] = second compound 1 µM, first compound 1 µM
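Also: viability read after seven days of compound exposure.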

CC(C)NCC(C(=O)N1CCN(c2ncnc3c2C(C)CC3O)CC1)c1ccc(Cl)cc1 (centres undefined) + C#Cc1c(F)ccc2cc(O)cc(-c3ncc4c(N5CC6CCC(C5)N6)nc(OCC56CCCN5CC(F)C6)nc4c3F)c12
pIC50 (second compound 0.0316 µM): 5.73 | pIC50 (second compound 0.1 µM): 5.76 | pIC50 (second compound 0.316 µM): 5.81 | pIC50 (second compound 1 µM): 6.03 | pIC50 (second compound 3.16 µM): 6.41 | pIC50 (second compound 10 µM): 6.80 | viability, T/C [1]: 99.3% | viability, T/C [2]: 99.2% | viability, T/C [3]: 90.4% | viability, T/C [4]: 71.6% | viability, T/C (second compound 0.0316 µM, first compound 3.16 µM): 32.1% | viability, T/C (second compound 0.0316 µM, first compound 10 µM): 13.8% | viability, T/C [5]: 106% | viability, T/C [6]: 99.1% | viability, T/C [7]: 94.3% | viability, T/C [8]: 69.9% | viability, T/C (second compound 0.1 µM, first compound 3.16 µM): 28% | viability, T/C (second compound 0.1 µM, first compound 10 µM): 13.5% | viability, T/C [9]: 103% | viability, T/C [10]: 95.1% | viability, T/C [11]: 86.9% | viability, T/C [12]: 69.2% | viability, T/C (second compound 0.316 µM, first compound 3.16 µM): 21.4% | viability, T/C (second compound 0.316 µM, first compound 10 µM): 13.7% | viability, T/C [13]: 100% | viability, T/C [14]: 94.6% | viability, T/C [15]: 79.2% | viability, T/C [16]: 48% | viability, T/C (second compound 1 µM, first compound 3.16 µM): 21.2% | viability, T/C (second compound 1 µM, first compound 10 µM): 10.3% | viability, T/C (second compound 3.16 µM, first compound 0.0316 µM): 84.6% | viability, T/C (second compound 3.16 µM, first compound 0.1 µM): 75% | viability, T/C (second compound 3.16 µM, first compound 0.316 µM): 53.3% | viability, T/C (second compound 3.16 µM, first compound 1 µM): 31.8% | viability, T/C (second compound 3.16 µM, first compound 3.16 µM): 13% | viability, T/C (second compound 3.16 µM, first compound 10 µM): 7.27% | viability, T/C (second compound 10 µM, first compound 0.0316 µM): 62.8% | viability, T/C (second compound 10 µM, first compound 0.1 µM): 55% | viability, T/C (second compound 10 µM, first compound 0.316 µM): 42.3% | viability, T/C (second compound 10 µM, first compound 1 µM): 20% | viability, T/C (second compound 10 µM, first compound 3.16 µM): 10.1% | viability, T/C (second compound 10 µM, first compound 10 µM): 4.52%

Nc1ccn(C2OC(CO)C(O)C2(F)F)c(=O)n1 (centres undefined) + C=CC(=O)N1CCN(c2nc(OCC3CCCN3C)nc3c(F)c(-c4nc(N)cc(C)c4C(F)(F)F)c(Cl)cc23)C(C)C1
pIC50 (second compound 0.00316 µM): 7.63 | pIC50 (second compound 0.01 µM): 7.46 | pIC50 (second compound 0.0316 µM): 7.60 | pIC50 (second compound 0.1 µM): 7.66 | pIC50 (second compound 0.316 µM): 7.64 | pIC50 (second compound 1 µM): 7.70 | viability, T/C (second compound 0.00316 µM, first compound 0.00316 µM): 89.9% | viability, T/C (second compound 0.00316 µM, first compound 0.01 µM): 89.7% | viability, T/C (second compound 0.00316 µM, first compound 0.0316 µM): 36.7% | viability, T/C (second compound 0.00316 µM, first compound 0.1 µM): 3.04% | viability, T/C (second compound 0.00316 µM, first compound 0.316 µM): 1.74% | viability, T/C (second compound 0.00316 µM, first compound 1 µM): 2.04% | viability, T/C (second compound 0.01 µM, first compound 0.00316 µM): 90.6% | viability, T/C (second compound 0.01 µM, first compound 0.01 µM): 87.7% | viability, T/C (second compound 0.01 µM, first compound 0.0316 µM): 53.7% | viability, T/C (second compound 0.01 µM, first compound 0.1 µM): 3.4% | viability, T/C (second compound 0.01 µM, first compound 0.316 µM): 1.89% | viability, T/C (second compound 0.01 µM, first compound 1 µM): 1.3% | viability, T/C (second compound 0.0316 µM, first compound 0.00316 µM): 88.7% | viability, T/C (second compound 0.0316 µM, first compound 0.01 µM): 86.3% | viability, T/C [1]: 41.4% | viability, T/C [2]: 4.87% | viability, T/C [3]: 1.41% | viability, T/C [4]: 1.39% | viability, T/C (second compound 0.1 µM, first compound 0.00316 µM): 96.5% | viability, T/C (second compound 0.1 µM, first compound 0.01 µM): 82.5% | viability, T/C [5]: 34.6% | viability, T/C [6]: 2.56% | viability, T/C [7]: 1.84% | viability, T/C [8]: 1.83% | viability, T/C (second compound 0.316 µM, first compound 0.00316 µM): 89.9% | viability, T/C (second compound 0.316 µM, first compound 0.01 µM): 82.8% | viability, T/C [9]: 37.8% | viability, T/C [10]: 4.66% | viability, T/C [11]: 1.55% | viability, T/C [12]: 1.83% | viability, T/C (second compound 1 µM, first compound 0.00316 µM): 93% | viability, T/C (second compound 1 µM, first compound 0.01 µM): 80% | viability, T/C [13]: 30.3% | viability, T/C [14]: 4.7% | viability, T/C [15]: 1.55% | viability, T/C [16]: 1.67%
